Source: ChEMBL document CHEMBL1201862, “PubChem BioAssay data set” (2004)
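These data come from cells grown in 96-well plates and exposed to compound for 48 hours at five concentrations. Abbreviation: GI50, concentration required for 50% inhibition of growth.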 Activity calls are given as the source filed them. Rule as the data show it: active = GI50 up to about 1.1 µM and inactive = higher.

Assays:
Assay in all cases: NCI tumour cell line growth inhibition, 48 h
[1] = system: IGROV-1
[2] = system: OVCAR-3
[3] = system: TK-10
[4] = system: HCT-116
[5] = system: SR
[6] = system: NCI-H226
[7] = system: HCC 2998
[8] = system: LOX IMVI
[9] = system: A549
[10] = system: UACC-62
[11] = system: EKVX
[12] = system: SNB-19
[13] = system: OVCAR-5
[14] = system: RPMI-8226
[15] = system: MOLT-4
[16] = system: PC-3
[17] = system: MCF7
[18] = system: HOP-92
[19] = system: MDA-MB-231

Row | Structure (SMILES) | GI50 [1] | GI50 [2] | GI50 [3] | GI50 [4] | GI50 [5] | GI50 [6] | GI50 [7] | GI50 [8] | GI50 [9] | GI50 [10] | GI50 [11] | GI50 [12] | GI50 [13] | GI50 [14] | GI50 [15] | GI50 [16] | GI50 [17] | GI50 [18] | GI50 [19]
1 | Nc1nc2c(ncn2CCOC(c2ccccc2)P(=O)(O)O)c(=O)[nH]1 (stereo not given) | > 100 µM (inactive) | > 100 µM (inactive) | > 100 µM (inactive) | > 100 µM (inactive) | > 100 µM (inactive) | > 100 µM (inactive) | > 100 µM (inactive) | > 100 µM (inactive) | > 100 µM (inactive) | > 100 µM (inactive) | > 100 µM (inactive) | > 100 µM (inactive) | > 100 µM (inactive) |  |  |  |  |  | 
2 | COC(=O)C(=O)C(/C(=N/N)C(=O)Nc1ccccc1C(N)=O)c1nc2ccc([N+](=O)[O-])cc2nc1O (stereo not given) | > 100 µM (inactive) | > 100 µM (inactive) | > 100 µM (inactive) | > 100 µM (inactive) | > 100 µM (inactive) | 29.3 µM (inactive) | > 100 µM (inactive) | > 100 µM (inactive) | > 100 µM (inactive) | > 100 µM (inactive) | 18.4 µM (inactive) | > 100 µM (inactive) | > 100 µM (inactive) | > 100 µM (inactive) | > 100 µM (inactive) |  |  |  | 
3 | COc1ccc(C2C3=C(CCCC3=O)N(c3ccccc3)C3=C2C(=O)CCC3)cc1 | > 100 µM (inactive) | 89.7 µM (inactive) | > 100 µM (inactive) |  | > 100 µM (inactive) | 21.6 µM (inactive) |  | > 100 µM (inactive) | > 100 µM (inactive) | 87.1 µM (inactive) | > 100 µM (inactive) | 58.9 µM (inactive) | > 100 µM (inactive) | > 100 µM (inactive) | > 100 µM (inactive) | > 100 µM (inactive) | 43.8 µM (inactive) | 29 µM (inactive) | 
4 | COC(=O)c1cc(Br)c(C(=O)C(Cl)(Cl)Cl)[nH]1 | > 100 µM (inactive) | > 100 µM (inactive) | > 100 µM (inactive) | > 100 µM (inactive) |  | > 100 µM (inactive) |  | > 100 µM (inactive) | > 100 µM (inactive) | > 100 µM (inactive) | > 100 µM (inactive) | > 100 µM (inactive) | > 100 µM (inactive) | > 100 µM (inactive) | > 100 µM (inactive) | > 100 µM (inactive) |  | > 100 µM (inactive) | > 100 µM (inactive)
5 | S=c1[nH]c(=S)c2nnn(-c3ccccc3)c2[nH]1 | > 100 µM (inactive) | > 100 µM (inactive) | > 100 µM (inactive) | 0.0836 µM (active) | > 100 µM (inactive) | > 100 µM (inactive) | > 100 µM (inactive) | > 100 µM (inactive) | > 100 µM (inactive) | > 100 µM (inactive) | > 100 µM (inactive) | > 100 µM (inactive) | > 100 µM (inactive) | > 100 µM (inactive) | > 100 µM (inactive) |  |  | > 100 µM (inactive) | 
6 | COC(=O)c1nc(-c2nc(CCNC(=O)OC(C)(C)C)sc2Cl)sc1Cl | > 100 µM (inactive) | 68.9 µM (inactive) | > 100 µM (inactive) | 60.7 µM (inactive) | 35.2 µM (inactive) | 33.3 µM (inactive) | > 100 µM (inactive) |  | > 100 µM (inactive) | 35.3 µM (inactive) | > 100 µM (inactive) | > 100 µM (inactive) | > 100 µM (inactive) | 41.1 µM (inactive) | 23.8 µM (inactive) | 28.1 µM (inactive) | 52 µM (inactive) | 6.62 µM (inactive) | 
7 | O=C1CC(O)c2c1csc2Br (stereo not given) | 13.5 µM (inactive) | 19.3 µM (inactive) | 8.97 µM (inactive) | 18.5 µM (inactive) |  |  | 19.2 µM (inactive) | 16.4 µM (inactive) | 28.4 µM (inactive) | 22.7 µM (inactive) | 48.2 µM (inactive) | 34.2 µM (inactive) | > 100 µM (inactive) | 14.3 µM (inactive) | 20.3 µM (inactive) | 32.4 µM (inactive) | 19.8 µM (inactive) |  | 23.8 µM (inactive)
8 | COc1ccc(C2OC(N)=C(C#N)C3=C2CCCC3C)cc1OC (stereo not given) | > 100 µM (inactive) | > 100 µM (inactive) | > 100 µM (inactive) | > 100 µM (inactive) |  | > 100 µM (inactive) |  | > 100 µM (inactive) |  | > 100 µM (inactive) | > 100 µM (inactive) | > 100 µM (inactive) | > 100 µM (inactive) | > 100 µM (inactive) | > 100 µM (inactive) | > 100 µM (inactive) | > 100 µM (inactive) |  | > 100 µM (inactive)
9 | Cc1ccc(S(=O)(=O)NC(=O)NCC(=O)O)cc1 | > 100 µM (inactive) |  | > 100 µM (inactive) | > 100 µM (inactive) |  |  |  | > 100 µM (inactive) | > 100 µM (inactive) | > 100 µM (inactive) |  | > 100 µM (inactive) | > 100 µM (inactive) | > 100 µM (inactive) | > 100 µM (inactive) | > 100 µM (inactive) | > 100 µM (inactive) | > 100 µM (inactive) | > 100 µM (inactive)
10 | CC(=O)N1c2ccccc2C(C)(C)OC1C(Cl)(Cl)Cl (stereo not given) | 41.8 µM (inactive) | 33.1 µM (inactive) | 35.9 µM (inactive) | 28.8 µM (inactive) |  | 87.7 µM (inactive) | 23.2 µM (inactive) |  | 27.7 µM (inactive) | 37 µM (inactive) | 26.2 µM (inactive) | 44.7 µM (inactive) | 44.8 µM (inactive) | 14.1 µM (inactive) | 14.4 µM (inactive) | 31.8 µM (inactive) | 23.6 µM (inactive) | 21 µM (inactive) | 39.6 µM (inactive)
11 | CCCCCCc1cc2cc(C(=O)Nc3ccccc3F)c(=N)oc2cc1O | 3.34 µM (inactive) | 6.38 µM (inactive) |  | 5.7 µM (inactive) | 2.83 µM (inactive) |  | 18.7 µM (inactive) | 5.24 µM (inactive) | 6.97 µM (inactive) | 6.55 µM (inactive) | 10.4 µM (inactive) | 8.83 µM (inactive) | 21.2 µM (inactive) | 3.66 µM (inactive) | 3.21 µM (inactive) | 11.2 µM (inactive) | 3.85 µM (inactive) |  | 
12 | O=c1[nH]c2nc3ccccc3c(=O)n2nc1Cc1ccccc1 | 45.1 µM (inactive) | 44.2 µM (inactive) |  | > 100 µM (inactive) | > 100 µM (inactive) | 94.6 µM (inactive) | > 100 µM (inactive) | > 100 µM (inactive) | > 100 µM (inactive) | > 100 µM (inactive) | > 100 µM (inactive) | > 100 µM (inactive) | > 100 µM (inactive) | > 100 µM (inactive) | > 100 µM (inactive) |  |  |  | 
13 | NNC(=O)CNC(=O)CSc1nnc(COc2ccc(Cl)cc2)n1-c1ccccc1 | > 100 µM (inactive) | > 100 µM (inactive) | > 100 µM (inactive) | > 100 µM (inactive) |  | > 100 µM (inactive) | > 100 µM (inactive) | > 100 µM (inactive) | > 100 µM (inactive) | > 100 µM (inactive) | > 100 µM (inactive) | > 100 µM (inactive) | > 100 µM (inactive) |  | > 100 µM (inactive) | > 100 µM (inactive) | > 100 µM (inactive) | > 100 µM (inactive) | > 100 µM (inactive)
14 | N#Cc1cccc(C2SCc3nc4ccccc4n32)c1 (stereo not given) | 32.9 µM (inactive) |  | > 100 µM (inactive) |  | 38.4 µM (inactive) | 28.9 µM (inactive) |  | > 100 µM (inactive) | 92.7 µM (inactive) | 37.2 µM (inactive) | 67.6 µM (inactive) | > 100 µM (inactive) | 48 µM (inactive) |  | 38.7 µM (inactive) |  |  | 36.3 µM (inactive) | 
15 | COc1ccc(-c2c(C(C)=O)c(-c3ccccc3)n(C3OC(COC(C)=O)C(OC(C)=O)C(OC(C)=O)C3OC(C)=O)c(=S)c2C#N)cc1 (stereo not given) | > 100 µM (inactive) | > 100 µM (inactive) | > 100 µM (inactive) | > 100 µM (inactive) | > 100 µM (inactive) | > 100 µM (inactive) | > 100 µM (inactive) | > 100 µM (inactive) | > 100 µM (inactive) | > 100 µM (inactive) | > 100 µM (inactive) | > 100 µM (inactive) | > 100 µM (inactive) |  | > 100 µM (inactive) |  | > 100 µM (inactive) | 19.2 µM (inactive) | > 100 µM (inactive)
16 | CCOc1ccc(N/C(=C(/C(Cl)=C(/Cl)N(CC)CC)[N+](=O)[O-])n2nnc3ccccc32)cc1 |  | 5.24 µM (inactive) |  | 16.7 µM (inactive) |  | 37.8 µM (inactive) | > 100 µM (inactive) |  | 34.4 µM (inactive) | 13.1 µM (inactive) | 23.3 µM (inactive) | 31.7 µM (inactive) | 33.3 µM (inactive) | 26.9 µM (inactive) | > 100 µM (inactive) | 17.5 µM (inactive) | 29.9 µM (inactive) |  | 10.7 µM (inactive)
17 | CCOc1ccccc1NC(=O)CC1C(=O)Nc2ccccc2[S+]1[O-] (stereo not given) | 51.5 µM (inactive) | 39.5 µM (inactive) | > 100 µM (inactive) | > 100 µM (inactive) | 16.5 µM (inactive) | 60.5 µM (inactive) | > 100 µM (inactive) | > 100 µM (inactive) | > 100 µM (inactive) | 26.3 µM (inactive) | 43 µM (inactive) | > 100 µM (inactive) | > 100 µM (inactive) | 11.4 µM (inactive) | 10.5 µM (inactive) |  |  | 43.1 µM (inactive) | 
18 | C/C(=C\C(C)COCc1ccccc1)[C@H](COCc1ccccc1)OCc1ccccc1 (stereo not given in full) | > 100 µM (inactive) | > 100 µM (inactive) | > 100 µM (inactive) | 85.1 µM (inactive) |  | > 100 µM (inactive) | > 100 µM (inactive) | 24.2 µM (inactive) | > 100 µM (inactive) | > 100 µM (inactive) | > 100 µM (inactive) | > 100 µM (inactive) | > 100 µM (inactive) | 50.1 µM (inactive) | 46.9 µM (inactive) |  |  | 10.4 µM (inactive) | 
